Measurements as given in patent US10166253B2, “Positively charged co-polymers for use as antimicrobial agents” (priority 2014, dated 2019).

How the values were obtained:
E. coli (NCTC 10418) = assay: Transmission electron microscopy of treated bacteria; assay type: cell-based, Escherichia coli
From the text: (§1) Transmission electron microscopy (TEM) was applied to examine the ultrastructural changes in P. aeruginosa (PAO1), S. aureus (Wood 46) and E. coli (NCTC 10418) induced after treatment with GA and LL-37. […] This critical alteration in the outer membrane of E. coli has previously been described as a disintegration of the outer membrane into micelles and vesicle-like structures (Meincken, M., D. L. Holroyd, and M. Rautenbach, Atomic force microscopy study of the effect of antimicrobial peptides on the cell envelope of Escherichia coli. Antimicrob Agents Chemother, 2005. 49(10): p. 4085-92). […] After incubation with LL-37 and GA, we found burst cells, but this observation was most significant after treatment with LL-37 (FIG. 9). Scale bar, 0.5 μm. Experiments were performed as 2 replicates.

[1] = tested on: P. aeruginosa (Strain PAO1); assay: Antimicrobial susceptibility testing by flow cytometry-based assay (LIVE/DEAD BacLight, Syto9/PI); assay type: cell-based
Description: (§2) E. coli (strain NCTC 10418), P. aeruginosa (Strain PAO1) and S. aureus (Wood 46, NCTC 7121) cells were grown in 5 mL of Todd Hewitt Broth medium (THB; Sigma-Aldrich). Bacteria were cultivated at 37° C. for 15 h in a 15 mL tube to obtain late-log phase cultures. Bacterial cultures were pelleted at 3096 g for 10 minutes; the supernatant was discarded and bacteria were resuspended in phosphate-buffered saline (PBS) supplemented with 40 mg/ml human albumin to mimic chemical properties of blood. Bacteria were diluted to a standardized inoculum of 10^9 CFU/mL.
(§3) Bacteria were treated with GA, LL-37, Piperacillin/Tazobactam or Vancomycin in varying concentrations, i.e. 50, 25, 10 or 2 μg/ml, for 30 minutes. As a positive control, bacteria were treated with 7% isopropanol. Hereafter, bacteria were pelleted at 3096 g for 10 minutes; the supernatant was discarded and bacteria were resuspended in PBS. The antimicrobial effect was tested in a well-established and widely used flow cytometry-based assay (LIVE/DEAD® BacLight™ Bacterial Viability and Counting Kit (L34856), Molecular Probes/Invitrogen) according to manufacturer's manual.
(§4) For each bacteria, the flow cytometry-based assay was repeated four times.
The antibacterial effect of GA on the gram-negative strain P. aeruginosa was tested by carrying out an experiment as described in Example 1. […] Although the untreated control stained positive for PI, this seemed to be explained by the capability of intact P. aeruginosa to secrete large quantities of DNA to the extracellular milieu.

P. aeruginosa (PAO1) [2] = assay: Antimicrobial activity in human serum and plasma (flow cytometry, PI/Syto9); assay type: cell-based, Pseudomonas aeruginosa; conditions: P. aeruginosa PAO1 ~10^8 cells/ml
From the text: It has been reported that the antimicrobial activity of antimicrobial peptides are inhibited by their binding to different factors in human plasma (Wang, Y., et al., Apolipoprotein A-I binds and inhibits the human antibacterial/cytotoxic peptide LL-37. J Biol Chem, 1998. 273(50): p. 33115-8), serum and is influenced by pH and ion composition (Johansson, J., et al., Conformation-dependent antibacterial activity of the naturally occurring human peptide LL-37. J Biol Chem, 1998. 273(6): p. 3718-24). To investigate the potential of GA for systemic application, bacterial isolates of P. aeruginosa (PAO1, ˜10^8 cells/ml) were incubated with increasing concentrations of GA and compared to LL-37. Bacterial survival and enumeration was evaluated by a flow cytometry bead standard and stained with propidium iodide and Syto9 following procedures as previously described above in the antimicrobial susceptibility testing by flow cytometry-based assay. […] All experiments were performed as four replicates.

S. aureus (Wood 46) = assay: Transmission electron microscopy of treated bacteria; assay type: cell-based, Staphylococcus aureus
From the text: as §1

[3] = tested on: S. aureus (Wood 46, NCTC 7121); assay: Antimicrobial susceptibility testing by flow cytometry-based assay (LIVE/DEAD BacLight, Syto9/PI); assay type: cell-based, Staphylococcus aureus; conditions: 30 minutes
Description: as §2, §3, §4

P. aeruginosa (PAO1) [4] = assay: Transmission electron microscopy of treated bacteria; assay type: cell-based, Pseudomonas aeruginosa
From the text: as §1

[5] = tested on: E. coli (strain NCTC 10418); assay: Antimicrobial susceptibility testing by flow cytometry-based assay (LIVE/DEAD BacLight, Syto9/PI); assay type: cell-based, Escherichia coli
Description: as §2, §3, §4
Flow cytometry was used to determine the antimicrobial activity of GA and LL-37. The flow cytometry diagrams show the results after treatment with 50 μg/ml LL-37, GA, piperacillin/tazobactam, 7% isopropanol and the untreated control. […] This gating strategy was primarily applied to avoid counting beads in the upper right corner of the FS-SS. […] Thus, a two-color fluorescence assay of bacterial viability, including PI and Syto9 staining, was applied. Syto9 stains all bacteria in a population, i.e. those with intact and those with damaged membranes. In contrast, propidium iodide (PI) penetrates only bacteria with damaged membranes, thereby making quantification of bacterial viability possible.

[6] = within the 30 minutes of treatment
[7] = positive control, 7% isopropanol

`CC[C@H](C)[C@H](NC(=O)[C@H](CCCCN)NC(=O)[C@H](CCC(=O)O)NC(=O)[C@H](CCCCN)NC(=O)[C@H](CO)NC(=O)[C@H](CCCCN)NC(=O)[C@H](CCCNC(=N)N)NC(=O)[C@H](Cc1ccccc1)NC(=O)[C@H](Cc1ccccc1)NC(=O)[C@H](CC(=O)O)NC(=O)CNC(=O)[C@H](CC(C)C)NC(=O)[C@@H](N)CC(C)C)C(=O)NCC(=O)N[C@@H](CCCCN)C(=O)N[C@@H](CCC(=O)O)C(=O)N[C@@H](Cc1ccccc1)C(=O)N[C@@H](CCCCN)C(=O)N[C@@H](CCCNC(=N)N)C(=O)N[C@H](C(=O)N[C@H](C(=O)N[C@@H](CCC(N)=O)C(=O)N[C@@H](CCCNC(=N)N)C(=O)N[C@H](C(=O)N[C@@H](CCCCN)C(=O)N[C@@H](CC(=O)O)C(=O)N[C@@H](Cc1ccccc1)C(=O)N[C@@H](CC(C)C)C(=O)N[C@@H](CCCNC(=N)N)C(=O)N[C@@H](CC(N)=O)C(=O)N[C@@H](CC(C)C)C(=O)N[C@H](C(=O)N1CCC[C@H]1C(=O)N[C@@H](CCCNC(=N)N)C(=O)N[C@H](C(=O)N[C@@H](CCC(=O)O)C(=O)N[C@@H](CO)C(=O)O)[C@@H](C)O)C(C)C)[C@@H](C)CC)C(C)C)[C@@H](C)CC` [LL-37] was tested, and the “ultrastructural changes (TEM, in words)” value (E. coli (NCTC 10418)) was “Signs of damage to the bacterial membrane”, the “antimicrobial activity (in words)” value [1, 6] was “more potent than when treating bacteria with 7% isopropanol” and the decreased bacterial inoculum [1, 6] was ~75%. The “increased PI positivity” value ([1]; within the 30 minutes of treatment (FIG. 4 overview)) was ~50%, the “antimicrobial activity in human plasma and serum (in words)” value (P. aeruginosa (PAO1) [2]) was “retains antimicrobial activity” and the “ultrastructural changes (TEM, in words)” value (S. aureus (Wood 46)) was “burst cells”. The “antimicrobial activity (in words)” value [3] was “more potent than Vancomycin”, the “percentage of bacteria testing positive for PI” value (“percentage … for PI” below) [3] was 31.9% and the “ultrastructural changes (TEM, in words)” value (P. aeruginosa (PAO1) [4]) was “dramatically reduced number of P. aeruginosa”. For the same compound, the “percentage … for PI” value ([5]; 50 μg/ml, 30 minutes) was 17.8% and the “percentage of bacteria testing positive for Syto-9” value (“percentage … for Syto-9” for short) ([5]; 50 μg/ml, 30 minutes) was 75.1%.

With `CN[C@H](CC(C)C)C(=O)N[C@H]1C(=O)N[C@@H](CC(N)=O)C(=O)N[C@H]2C(=O)N[C@H]3C(=O)N[C@H](C(=O)N[C@H](C(=O)O)c4cc(O)cc(O)c4-c4cc3ccc4O)[C@H](O)c3ccc(c(Cl)c3)Oc3cc2cc(c3O[C@@H]2O[C@H](CO)[C@@H](O)[C@H](O)[C@H]2O[C@H]2C[C@](C)(N)[C@H](O)[C@H](C)O2)Oc2ccc(cc2Cl)[C@H]1O` [Vancomycin] the “antimicrobial activity (in words)” value [3] was “comparable to the one obtained for LL-37”.

`CC(C)O` [isopropanol] was tested, and the “percentage … for PI” value [5, 7] was 32.2% and the “percentage … for Syto-9” value [5, 7] was 61.7%.

With Piperacillin/Tazobactam the PI positivity ([1]; 50 μg/ml, 30 minutes) was “about 30%”, the “antimicrobial activity (in words)” value [1, 6] was “no antimicrobial activity” and the “percentage … for PI” value ([5]; 50 μg/ml, 30 minutes) was 10%. For the same compound, the “percentage … for Syto-9” value ([5]; 50 μg/ml, 30 minutes) was 86.8% and the “antimicrobial activity (in words)” value [5, 6] was “no antimicrobial activity”.
